The source of these data is US20010009913A1, “Anxiety method” (priority 1999, published 2001).

One series deals with T1, human 5-HT1A receptor (Homo sapiens, UniProt P08908).
T1 construct: expressed in transfected cells; host or cells: HEK293 cells
T1 sequence (P08908 1-422): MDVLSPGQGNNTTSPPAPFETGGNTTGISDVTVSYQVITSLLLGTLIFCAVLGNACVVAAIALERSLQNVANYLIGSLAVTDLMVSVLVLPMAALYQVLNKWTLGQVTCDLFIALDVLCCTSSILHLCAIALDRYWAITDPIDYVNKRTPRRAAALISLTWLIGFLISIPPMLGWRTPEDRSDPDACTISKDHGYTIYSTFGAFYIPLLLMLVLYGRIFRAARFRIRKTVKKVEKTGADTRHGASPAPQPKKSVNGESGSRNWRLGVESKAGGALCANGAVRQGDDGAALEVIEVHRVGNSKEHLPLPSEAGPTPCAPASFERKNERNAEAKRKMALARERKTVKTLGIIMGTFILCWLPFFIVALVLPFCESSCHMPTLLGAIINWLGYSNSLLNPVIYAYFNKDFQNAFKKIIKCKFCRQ
Kind of series: 5-HT1A receptor binding assay. Particulars: for Ki: read-out: K1 value. How it is done:
Membranes are prepared for binding using the human 5-HT1A receptor expressed in HEK293 cells. Cells are collected and ruptured using a dounce homogenizer. The cells are spun at 18000xg for 10 minutes and the pellet is resuspended in assay buffer, frozen in liquid nitrogen and kept at −80° C. until the day of the assay.
A total of 30 ug protein is used per well. The assay is carried out in 96-deep-well plates. The assay buffer is 50 mM HEPES containing 2.5 mM MgCl2 and 2 mM EGTA. […] 10 mM serotonin serves as blocking agent to determine non-specific binding. The reaction is terminated by the addition of 1 ml of ice cold 50 mM HEPES buffer and rapid filtration through a Brandel Cell Harvester using Whatman GF/B filters. The filter pads are counted in an LKB Trilux liquid scintillation counter. IC50 values are determined using non-linear regression by Excel-fit.

The test system of series [1] is dorsal raphe neurons. Kind of series: Inhibition of dorsal raphe neuronal firing after systemic administration. The series is classed as in vivo. Particulars: previous in-house testing, I.V. and intragastric, rats. The source says:
See: VanderMaelen, et al., Eur. J. Pharmacol., 129, pp. 123-30, 1986. While one metabolite, the structural fragment 1-(2-pyrimidinyl)piperazine, also known as 1-PP, [drawing 3]

Another series has as its system CYP3A4. Kind of series: Inhibition of the metabolism of buspirone by ketoconazole in pooled HLM. Particulars: ketoconazole concentrations up to 0.125 μM.
The subject of another series is rat pups. In words: Rat pup isolation-induced ultrasonic vocalization test (vocalization and locomotor activity). The series is classed as in vivo. The conditions noted are these: sc, 30 min prior to test; for ID50, dose predicted to reduce the number of ultrasonic calls by 50%: 9-11 day old rat pups, cold plate. The source says: Ultrasonic vocalizations emitted by rat pups following isolation from their mother and littermates and subjected to a variety of environmental stimuli (e.g., cold temperature) has proven to be a sensitive method for assessing potential anxiolytic and anxiogenic compounds (Winslow and Insel, 1991, Psychopharmacology, 105:513-520). Psychoactive compounds purported to be anxiolytic suppress the frequency of ultrasonic calls whereas, calls are increased by drugs with anxiogenic properties. More importantly, the isolation-induced ultrasonic vocalization paradigm appears to be most sensitive for detecting anxiolytic properties across a broad spectrum of drug classes such as benzodiazepines, 5-HT reuptake inhibitors, 5-HT1A agonists as well as NMDA antagonists.
Harlan Sprague-Dawley rat pups (male and female) were housed in polycarbonate cages with the dam until 9-11 days old. Thirty minutes before testing, pups were removed from the dam, placed into a new cage with a small amount of home bedding and brought into the lab and placed under a light to maintain body temperature at 37° C. Pups were then weighed, sexed, marked and returned to the litter group until behavioral assessment. Testing took place in a Plexiglas recording chamber that contained a metal plate maintained at (18-20° C.) with a 5×5 cm grid drawn on the plate. A microphone was suspended 10 cm above the plate to record ultrasonic vocalizations. Ultrasonic calls were recorded using the Noldus UltraVox system providing on-line analysis of the frequency and duration of calls. The number of grid cells entered by the pup was also collected by visual scoring. […] Immediately following the collection of the baseline measures, pups were injected with vehicle or drug subcutaneously at the nape of the neck and returned to its littermates. […] Baseline differences and percent change from baseline for the frequency of ultrasonic vocalizations and grid cell crossings were analyzed using a one-way ANOVA. […]

Series [2] deals with dorsal raphe neurons. The conditions noted are these: VanderMaelen et al. 1986; cited from earlier work.
The conditions of series [3]: Gammans et al. 1986; cited from earlier work.
A short description of series [4]: Human pharmacokinetic study, oral buspirone BID for 25 days.
Series [5] can be described thus: Modified Vogel Conflict test. In kind it is in vivo. The conditions noted are these: earlier in-house testing. An excerpt: Earlier in-house functional testing of BMY 28674 utilized an in vivo test method based on modification of the Vogel Conflict test, a simple reliable conflict procedure for testing antianxiety agents (see: Vogel, et al., Psychopharmacologia, (Berl.) 21, pp.1-7, 1971). […] No useful antianxiety activity has been ascribed to BMY 28674 previously.

[6] abbreviates: membranes of HEK293 cells, 1 nM 3H-8-OH-DPAT, read-out: IC50.
[7] abbreviates: membranes of HEK293 cells, 1 nM 3H-8-OH-DPAT.

Entries after “also recorded” stand apart in the source; their conditions may differ. Where two headings read alike, the source gives them in different places. Some results are limits rather than exact numbers.

As a reminder, the IC50 is the concentration at which inhibition is half-maximal. `c1cnc(N2CCNCC2)nc1` [1-PP, 1-(2-pyrimidinyl)piperazine]: on human 5-HT1A receptor, the IC50 is greater than 1000 nM and the “binding / affinity at the 5-HT1A receptor” value is “does not demonstrate binding”. Moreover, the “inhibition of dorsal raphe neuronal firing” value in the series on dorsal raphe neurons [1] is given as “weak inhibition”.
Consider `CC(=O)N1CCN(c2ccc(OCC3COC(Cn4ccnc4)(c4ccc(Cl)cc4Cl)O3)cc2)CC1` (centres unmarked) [ketoconazole], for which the “effect on buspirone metabolism” value in the series on CYP3A4 is on record as “No effect”.
For `O=C1CC2(CCCC2)CC(=O)N1CCCCN1CCN(c2ncccn2)CC1` [Buspirone], the “ID50, dose predicted to reduce the number of ultrasonic calls by 50%” value with rat pups was 0.10 mg/kg. For the same molecule, the “inhibition of firing of dorsal raphe neurons” value in the series with dorsal raphe neurons [2] is “potently inhibits”. Moreover, in series [3], the “variation of maximum plasma concentration between individuals” value is listed as “up to 10 fold”. In series [4] (human, blood, po), this molecule showed a concentration at 2 h of less than 1 ng/mL. Besides, the safety and tolerability result in series [4] (multiple oral doses, five dose levels 5-30 mg BID, healthy adults, 25 days) was “safe and generally well tolerated”. Also, in series [4] (oral buspirone BID, at the higher doses, FIG. 3), the “mean blood level concentration of buspirone” value is 1 to 2 ng/mL.
Turning to `O=C1CC2(CCC(O)C2)CC(=O)N1CCCCN1CCN(c2ncccn2)CC1` (centres unmarked) [3-OH-buspirone (BMY 14295)], the half-inhibitory concentration (IC50) on human 5-HT1A receptor (setting [6]) was determined as 652 nM. Moreover, the Ki at human 5-HT1A receptor (setting [7]) was 326 nM.
On to `O=C1CC2(CCCC2)CC(=O)N1CCCCN1CCN(c2ncc(O)cn2)CC1` [5-OH-buspirone (BMY 14131)], for which, on human 5-HT1A receptor (setting [6]), the IC50 stood at 928 nM. On human 5-HT1A receptor (setting [7]), the Ki was determined as 464 nM.
`O=C1CC2(CCCC2)C(O)C(=O)N1CCCCN1CCN(c2ncccn2)CC1` (centres unmarked) [BMY 28674, 6-hydroxy-8-[4-[4-(2-pyrimidinyl)-piperazinyl]-butyl]-8-azaspiro[4.5]-7,9-dione]: in the series with rat pups, the “ID50, dose predicted to reduce the number of ultrasonic calls by 50%” value is 0.13 mg/kg. Besides, the “ID50 dose estimated to reduce locomotor activity” value in the series with rat pups (grid cell crossings) is 0.41 mg/kg. Moreover, the “antianxiety response in the Vogel test” value in series [5] was “did not elicit an antianxiety response”. At human 5-HT1A receptor (setting [6]), the IC50 amounted to 114 nM. Besides, the Ki at human 5-HT1A receptor (setting [7]) was determined as 57 nM. In series [4] (after oral buspirone, human subjects), the “blood concentration of BMY 28674 relative to 1-PP” value is recorded as “several-fold greater; also recorded: several-fold higher”.
